{"source": "patent US20250114362A1", "about": "“METHODS AND COMPOSITIONS FOR TREATMENT OF CUTANEOUS PROLIFERATIVE DISORDERS AND OTHER SKIN CONDITIONS” (ASYMMETRIC THERAPEUTICS, LLC, priority 2022, published 2025)", "key": {"HaCaT cells": {"tested_on": "HaCaT cells", "experiment": "M5 cocktail psoriasis-like HaCaT keratinocyte model, live and dead cell numbers by MultiTox-Glo Multiplex Cytotoxicity Assay", "conditions": "for Cell Counts, 0 hours, Dead / Cell Counts, 0 hours, Live / Cell Ratios, 0 hours, Dead / Cell Ratios, 0 hours, Total: 0 hours (baseline); for Cell Counts, 0 hours, Dead / Cell Counts, 0 hours, Live / Cell Counts, 48 hours, Dead / Cell Counts, 48 hours, Total / Cell Counts, 72 hours, Dead / Cell Counts, 72 hours, Total: M5 cocktail, ± standard deviation; for Cell Ratios, 0 hours, Dead / Cell Ratios, 0 hours, Total / Cell Ratios, 48 hours, Dead / Cell Ratios, 48 hours, Total / Cell Ratios, 72 hours, Dead / Cell Ratios, 72 hours, Total: relative to 9177 live cells at zero hours", "protocol": "Immortalized human keratinocytes (HaCaT cells) purchased from AddexBio (San Diego, CA) were maintained in vitro in Dulbecco's modified Eagle's medium (DMEM) supplemented with 10% Fetal Bovine Serum (FBS) and antibiotics (100 U/mL penicillin and […] streptomycin) and cultured in an incubator with 5% CO2 at 37° C.\nHaCaT cells were seeded at approximately 50% density (1×10^4 cells/well) and after 16 h the medium was replaced with 50 μL of pre-treatment medium containing different concentrations of allopurinol (0, 0.5, or 3 mM) or methotrexate (1 μM) and placed back into the incubator. Treatment media was prepared using standard media containing vehicle control (PBS) or M5 cocktail.\nOther HaCaT cells were incubated in vitro for 72 hours in the presence of a M5 composition that also included 1.0 μM methotrexate, 0.5 mM allopurinol, 3.0 mM allopurinol, 0.5 mM oxypurinol, or 3.0 mM oxypurinol.\nThe number of live and dead cells were determined by the MultiTox-Glo Multiplex Cytotoxicity Assay (Promega, Madison WI) according to the manufacturer's protocol. A dilution series of cells was used to generate a standard curve for calculation of cell number in each well. The total number of cells was the sum of the live and dead cells."}, "Ki67": {"tested_on": "Ki67", "experiment": "MatTek PSE culture system, Ki67 level by PCR", "format": "cell-based, human", "conditions": "for Relative Ki67 Level: Day 6, normalized to control at Day 0 = 1.0; for Relative Expression Levels, Ki67: after two days of treatment", "protocol": "The level of Ki67 in the MatTek tissue culture system was also determined. Ki67 is a nuclear protein and a replication marker. The level of Ki67 was determined by polymerase chain reaction (PCR) analysis with standard protocols. The relative levels are normalized with respect to the measured Ki67 level of the control at Day 0, which is adjusted to 1.0.\n(§1) Other markers of cell proliferation were also measured, namely (protein p21), and four markers of inflammatory signaling (IL17A, IL23A, TNF-α, and transforming growth factor beta (TGF-β)) in the MatTek PSE culture system after two days of treatment were also determined. Ki67 is a nuclear protein and a replication marker. The marker levels were determined by isolating total RNA by a Promega SV96 Total RNA Isolation Vacuum System (Promega, Madison, WI) according to the manufacturer's instructions. The total RNA was reverse transcribed using an ABI High Capacity cDNA reverse transcription kit (Applied Biosystems, Foster City, CA). Quantitative real-time polymerase chain reaction (qPCR) was performed with the use of a SYBR Green PCR Master Mix (Applied Biosystems) according to the manufacturer's protocol and amplified on a StepOnePlus Real-Time PCR System."}, "p21": {"tested_on": "p21", "experiment": "MatTek PSE culture system, p21 mRNA by qPCR", "format": "cell-based, human", "conditions": "after two days of treatment", "protocol": "as §1"}, "IL17A": {"tested_on": "IL17A", "experiment": "MatTek PSE culture system, IL17A mRNA by qPCR", "format": "cell-based, human", "conditions": "after two days of treatment", "protocol": "as §1"}, "IL23A": {"tested_on": "IL23A", "experiment": "MatTek PSE culture system, IL23A mRNA by qPCR", "format": "cell-based, human", "conditions": "after two days of treatment", "protocol": "as §1"}, "TNF-α": {"tested_on": "TNF-α", "experiment": "MatTek PSE culture system, TNF-α mRNA by qPCR", "format": "cell-based, human", "conditions": "after two days of treatment", "protocol": "as §1"}, "TGF-β": {"tested_on": "TGF-β", "experiment": "MatTek PSE culture system, TGF-β mRNA by qPCR", "format": "cell-based, human", "conditions": "after two days of treatment", "protocol": "as §1"}, "p21/Ki67": {"tested_on": "p21/Ki67", "experiment": "MatTek PSE culture system, ratio of p21 to Ki67 mRNA levels", "format": "cell-based, human", "conditions": "after two days of treatment; treatment compositions of Table 5", "protocol": "Ki67 is a replication marker for cells and the lower the value, the lower the replication rate. P21 is a protein which is a marker for the inhibition of cell proliferation. Thus, an increased ratio of P21/Ki67 indicates decreased cell replication. FIG. 9 illustrates this ratio under several conditions as described in Example 2.\nas §1\nTo highlight effects on cell proliferation, the ratio of p21 to Ki67 mRNA levels were calculated, with the results being shown in FIG. 9."}, "psoriasis [1]": {"tested_on": "psoriasis", "conditions": "Viglioglia et al. 1970; cited from earlier work"}, "psoriasis [2]": {"tested_on": "psoriasis", "conditions": "oral administration; double-blind cross-over study, Feuerman et al. 1973; cited from earlier work"}, "hand-foot syndrome": {"tested_on": "hand-foot syndrome", "conditions": "topical; prevention of hand-foot syndrome; trial by Rodemer; cited from earlier work"}, "[3]": {"tested_on": "MatTek human PSE culture system (SOR-300-FT)", "experiment": "MatTek human PSE culture system, tissue layer thickness and histology", "text": "The thickness of each of the three tissue layers of skin was monitored and measured after two days and after six days of exposure to the treatment medium in a blinded fashion by a board-certified and nationally respected pathologist."}}, "note": "Values joined by “and” are separate entries in the source; they are usually repeats but may differ in a detail not shown here. Equal values may be shown once.", "data": [{"molecule": "Oc1ncnc2[nH]ncc12", "note": "[allopurinol]", "values": [{"measurement": "Cell Counts, 0 hours, Dead", "setting": "HaCaT cells; 0.5 mM", "value": "801 ± 19"}, {"measurement": "Cell Counts, 0 hours, Live", "setting": "HaCaT cells; 0.5 mM", "value": "9177 ± 90"}, {"measurement": "Cell Ratios, 0 hours, Dead", "setting": "HaCaT cells; 0.5 mM", "value": 0.087}, {"measurement": "Cell Ratios, 0 hours, Total", "setting": "HaCaT cells; 0.5 mM", "value": 1.087}, {"measurement": "Cell Counts, 48 hours, Dead", "setting": "HaCaT cells; 0.5 mM", "value": "2319 ± 141"}, {"measurement": "Cell Counts, 48 hours, Total", "setting": "HaCaT cells; 0.5 mM", "value": "11705 ± 161"}, {"measurement": "Cell Ratios, 48 hours, Dead", "setting": "HaCaT cells; 0.5 mM", "value": 0.253}, {"measurement": "Cell Ratios, 48 hours, Total", "setting": "HaCaT cells; 0.5 mM", "value": 1.275}, {"measurement": "Cell Counts, 72 hours, Dead", "setting": "HaCaT cells; 0.5 mM", "value": "4024 ± 166"}, {"measurement": "Cell Counts, 72 hours, Total", "setting": "HaCaT cells; 0.5 mM", "value": "13428 ± 216"}, {"measurement": "Cell Ratios, 72 hours, Dead", "setting": "HaCaT cells; 0.5 mM", "value": "0.44 and 0.438"}, {"measurement": "Cell Ratios, 72 hours, Total", "setting": "HaCaT cells; 0.5 mM", "value": "1.46 and 1.463"}, {"measurement": "Cell Counts, 0 hours, Dead", "setting": "HaCaT cells; 3.0 mM", "value": "801 ± 19"}, {"measurement": "Cell Counts, 0 hours, Live", "setting": "HaCaT cells; 3.0 mM", "value": "9177 ± 90"}, {"measurement": "Cell Ratios, 0 hours, Dead", "setting": "HaCaT cells; 3.0 mM", "value": 0.087}, {"measurement": "Cell Ratios, 0 hours, Total", "setting": "HaCaT cells; 3.0 mM", "value": 1.087}, {"measurement": "Cell Counts, 48 hours, Dead", "setting": "HaCaT cells; 3.0 mM", "value": "1275 ± 117"}, {"measurement": "Cell Counts, 48 hours, Total", "setting": "HaCaT cells; 3.0 mM", "value": "9038 ± 176"}, {"measurement": "Cell Ratios, 48 hours, Dead", "setting": "HaCaT cells; 3.0 mM", "value": 0.139}, {"measurement": "Cell Ratios, 48 hours, Total", "setting": "HaCaT cells; 3.0 mM", "value": 0.985}, {"measurement": "Cell Counts, 72 hours, Dead", "setting": "HaCaT cells; 3.0 mM", "value": "2004 ± 168"}, {"measurement": "Cell Counts, 72 hours, Total", "setting": "HaCaT cells; 3.0 mM", "value": "9367 ± 280"}, {"measurement": "Cell Ratios, 72 hours, Dead", "setting": "HaCaT cells; 3.0 mM", "value": "0.22 and 0.218"}, {"measurement": "Cell Ratios, 72 hours, Total", "setting": "HaCaT cells; 3.0 mM", "value": "1.02 and 1.021"}, {"measurement": "Relative Ki67 Level", "setting": "Ki67; 0.5 mM", "value": 3.18}, {"measurement": "Relative Expression Levels, Ki67", "setting": "Ki67; 0.5 mM", "value": "0.27 ± 0.01"}, {"measurement": "Relative Ki67 Level", "setting": "Ki67; 3 mM", "value": 0.96}, {"measurement": "Relative Expression Levels, Ki67", "setting": "Ki67; 3 mM", "value": "0.42 ± 0.09"}, {"measurement": "Relative Expression Levels, p21", "setting": "p21; 0.5 mM", "value": "1.27 ± 0.10"}, {"measurement": "Relative Expression Levels, p21", "setting": "p21; 3 mM", "value": "1.40 ± 0.17"}, {"measurement": "Relative Expression Levels, IL17A", "setting": "IL17A; 0.5 mM", "value": "0.21 ± 0.07"}, {"measurement": "Relative Expression Levels, IL17A", "setting": "IL17A; 3 mM", "value": "0.09 ± 0.04"}, {"measurement": "Relative Expression Levels, IL23A", "setting": "IL23A; 0.5 mM", "value": "0.95 ± 0.20"}, {"measurement": "Relative Expression Levels, IL23A", "setting": "IL23A; 3 mM", "value": "0.66 ± 0.17"}, {"measurement": "Relative Expression Levels, TNF-α", "setting": "TNF-α; 0.5 mM", "value": "0.75 ± 0.13"}, {"measurement": "Relative Expression Levels, TNF-α", "setting": "TNF-α; 3 mM", "value": "0.82 ± 0.19"}, {"measurement": "Relative Expression Levels, TGF-β", "setting": "TGF-β; 0.5 mM", "value": "0.90 ± 0.09"}, {"measurement": "Relative Expression Levels, TGF-β", "setting": "TGF-β; 3 mM", "value": "0.60 ± 0.12"}, {"measurement": "p21/Ki67 ratio (mRNA levels)", "setting": "p21/Ki67", "value": "markedly increased"}, {"measurement": "cases with excellent results", "setting": "psoriasis [1]", "value": 50, "unit": "%"}, {"measurement": "cases with good results", "setting": "psoriasis [1]", "value": 34, "unit": "%"}, {"measurement": "cases with moderate results", "setting": "psoriasis [1]", "value": 16, "unit": "%"}, {"measurement": "improvement in psoriasis versus placebo", "setting": "psoriasis [2]", "value": "no improvement over a placebo"}, {"measurement": "clinical efficacy endpoint", "setting": "hand-foot syndrome", "value": "did not meet its clinical efficacy endpoint"}, {"measurement": "Layer Thickness, Dermis", "setting": "[3]; 0.5 mM, 2 days", "value": 0.4, "unit": "mm"}, {"measurement": "Layer Thickness, Epidermis", "setting": "[3]; 0.5 mM, 2 days", "value": 0.1, "unit": "mm"}, {"measurement": "Layer Thickness, Stratum Corneum", "setting": "[3]; 0.5 mM, 2 days", "value": 0.05, "unit": "mm"}, {"measurement": "Layer Thickness, Dermis", "setting": "[3]; 0.5 mM, 6 days", "value": 0.25, "unit": "mm"}, {"measurement": "Layer Thickness, Epidermis", "setting": "[3]; 0.5 mM, 6 days", "value": 0.1, "unit": "mm"}, {"measurement": "Layer Thickness, Stratum Corneum", "setting": "[3]; 0.5 mM, 6 days", "value": 0.05, "unit": "mm"}, {"measurement": "increase in dermis layer thickness from treatment for 2 days to 6 days", "setting": "[3]; 3.0 mM allopurinol alone", "value": 1.4, "unit": "fold"}, {"measurement": "Layer Thickness, Dermis", "setting": "[3]; 3 mM, 2 days", "value": 0.25, "unit": "mm"}, {"measurement": "Layer Thickness, Epidermis", "setting": "[3]; 3 mM, 2 days", "value": 0.1, "unit": "mm"}, {"measurement": "Layer Thickness, Stratum Corneum", "setting": "[3]; 3 mM, 2 days", "value": 0.02, "unit": "mm"}, {"measurement": "Layer Thickness, Dermis", "setting": "[3]; 3 mM, 6 days", "value": 0.35, "unit": "mm"}, {"measurement": "Layer Thickness, Epidermis", "setting": "[3]; 3 mM, 6 days", "value": 0.15, "unit": "mm"}, {"measurement": "Layer Thickness, Stratum Corneum", "setting": "[3]; 3 mM, 6 days", "value": 0.1, "unit": "mm"}]}]}
